Measured values from patent US20160257651A1, “NOVEL COMPOUND WITH ANTIBACTERIAL ACTIVITY” (priority 2013, published 2016).
Values after ≈ are worked out from the molar mass of the structure shown. Where two headings read alike, the source gives them in different places.

Columns and labels:
[1] = system: S. aureus FDA209P (ATCC 6538P); experiment: microbe, parasite or virus in culture; assay type: cell-based, Staphylococcus aureus; settings: quinolone-susceptible MSSA, ParC 80S, GyrA 84S
Description: (§1) Then, the cell suspension was diluted 500 times with CAMHB mentioned above.

S. aureus Mu50 = experiment: microbe, parasite or virus in culture; assay type: cell-based, Staphylococcus aureus; settings: for MIC ratio (Mu50 MIC/FDA209P MIC): MIC for S. aureus Mu50 / MIC for S. aureus FDA209P; for MIC: S. aureus Mu50, quinolone-resistant MRSA, ParC S80F, GyrA S84L
Description: as §1

E. coli strain 1708 = experiment: Antibacterial activity against Escherichia coli
Description: (§2) The numerical values in the tables indicate MIC (mg/L), Res means resistant bacterium, and Sus means susceptible bacterium.
(§3) Antibacterial activities against Escherichia coli of the compounds shown Table 19 were examined by the following method.
(§4) After completion of the culture, the cells were suspended in fresh TBS to prepare a cell suspension showing an absorbance of 0.3 at 578 nm.

E. coli strain 1709 = experiment: Antibacterial activity against Escherichia coli
Description: as §2, §3, §4

[2] = Staphylococcus aureus, ATCC 6538P / FDA209P / MSSA, read-out: MIC

Molecule | MIC [1] [mg/L] | MIC ratio (Mu50 MIC/FDA209P MIC) (S. aureus Mu50) | MIC (S. aureus Mu50) [mg/L] | MIC [1, 2] [mg/L] | MIC (S. aureus Mu50; Staphylococcus aureus, MRSA) [mg/L] | MIC (E. coli strain 1708) [mg/L] | MIC (E. coli strain 1709) [mg/L]
9-(hydroxyphenyl)-6-methyloxazolo[5,4,3-ij]quinolin-4(2H)-one [J-2.1.1] | 32 | 0.5 | 16 |  |  |  | 
O=c1cc(CO)c2ccc(-c3ccc(O)cc3)c3c2n1CO3 [J-2.1.2, 6-(hydroxymethyl)-9-(4-hydroxyphenyl)oxazolo[5,4,3-ij]quinolin-4(2H)-one] |  | 0.125 |  | 128 (≈ 433 µM) | 16 (≈ 54.2 µM) |  | 
Cn1c(=O)cc(CO)c2ccc3c(c21)OCO3 [J-103, 6-(hydroxymethyl)-9-methyl-9-hydro-2H-1,3-dioxoleno[4,5-h]quinolin-8-one] | 128 (≈ 549 µM) | 0.125 | 16 (≈ 68.6 µM) |  |  |  | 
O=c1cc(CO)c2ccc(-c3ccc(O)cc3)cc2n1C1CC1 [J-121Cp, 1-cyclopropyl-4-hydroxymethyl-7-(4-hydroxy-phenyl)-1H-quinolin-2-one] |  | 0.5 |  | 1 (≈ 3.25 µM) | 0.5 (≈ 1.63 µM) |  | 
Cc1cc(=O)n(C)c2cc(-c3ccc(O)cc3)ccc12 [J-121Me] |  | 0.0313 |  | 128 (≈ 482 µM) | 4 (≈ 15.1 µM) |  | 
CC(=O)N1COc2c1ccc1c(CO)cc(=O)n(C)c21 [J-125a, 3-acetyl-6-(hydroxymethyl)-9-methyl-8-oxo 9-hydro-2H-1,3-oxazolino[4,5-h]quinoline] | 128 (≈ 467 µM) | 0.125 | 16 (≈ 58.3 µM) |  |  |  | 
Cn1c(=O)cc(CO)c2cc(F)c(-c3ccc(O)cc3)cc21 [J-131, 6-fluoro-4-(hydroxymethyl)-7-(4-hydroxyphenyl)-1-methylhydroquinolin-2-one] | 16 (≈ 53.5 µM) | 0.25 | 4 (≈ 13.4 µM) |  |  |  | 
CC(=O)OCc1cc(=O)n(C2CC2)c2cc(-c3ccc(O)cc3)c(F)cc12 [J-131ACp, [1-cyclopropyl-6-fluoro-7-(4-hydroxyphenyl)-2-oxo-4-hydroquinolyl]methyl.acetate] |  | 0.0625 |  | 64 | 4 | 128 | 128
CCn1c(=O)cc(CO)c2cc(F)c(-c3ccc(O)cc3)cc21 [J-131E, 1-ethyl-6-fluoro-4-(hydroxymethyl)-7-(4-hydroxyphenyl)hydroquinolin-2-one] | 2 (≈ 6.38 µM) | 0.25 | 0.5 (≈ 1.6 µM) |  |  |  | 
Cn1c(=O)cc(CO)c2cc(F)c(-c3ccc(N)cc3)cc21 [J-132, 7-(4-aminophenyl)-6-fluoro-4-(hydroxymethyl)-1-methylhydroquinolin-2-one] | 128 (≈ 429 µM) | 0.0625 | 8 (≈ 26.8 µM) |  |  |  | 
Nc1ccc(-c2cc3c(cc2F)c(COC(=O)CC(=O)O)cc(=O)n3C2CC2)cc1 [J-135, 2-({[7-(4-aminophenyl)-1-cyclopropyl-6-fluoro-2-oxo-4-hydroquinolyl]methyl}oxycarbonyl)acetic acid] | 8 (≈ 19.5 µM) | 1 | 8 (≈ 19.5 µM) |  |  |  | 
Nc1ccc(-c2cc3c(cc2F)c(COC(=O)CCC(=O)O)cc(=O)n3C2CC2)cc1 [J-136, 3-({[7-(4-aminophenyl)-1-cyclopropyl-6-fluoro-2-oxo-4-hydroquinolyl]methyl}oxycarbonyl)propanoic acid] | 32 (≈ 75.4 µM) | 0.25 | 8 (≈ 18.8 µM) |  |  |  | 
CCC(=O)OCc1cc(=O)n(C2CC2)c2cc(-c3ccc(N)cc3)c(F)cc12 [J-138, [7-(4-aminophenyl)-1-cyclopropyl-6-fluoro-2-oxo-4-hydroquinolyl]methyl propanoate] | 2 (≈ 5.26 µM) | 1 | 2 (≈ 5.26 µM) |  |  |  | 
Cc1cc2c(CO)cc(=O)n(C3CC3)c2cc1-c1ccc(O)cc1 [J-140, 1-cyclopropyl-4-(hydroxymethyl)-7-(4-hydroxyphenyl)-6-methylhydroquinolin-2-one] | 1 (≈ 3.11 µM) | 0.25 | 0.25 (≈ 0.778 µM) |  |  |  | 
